According to patent US7217710B2, “Substituted pyrazolopyrimidines” (SmithKline Beecham Corporation, priority 2001, dated 2007):

Legend:
Format in all cases: biochemical
GST-VEGFR2 = biological target: T1, GST-VEGFR2 (Homo sapiens, UniProt P35968); assay: VEGF-R2 Enzyme Assay (VEGF-E2), LANCE method; details: for IC50: read-out: VEGFR2 PIC50 VEGFR-E2 assay
T1 construct: GST-VEGFR2, baculovirus expressed recombinant constructs of the intracellular domains; made in house

[1] = biological target: T2, GST-TIE2 (intracellular domains of human TIE2) (Homo sapiens, UniProt Q02763); assay: TIE-2 Enzyme Assay (TIE2-E2), LANCE method; details: for IC50: read-out: TIE2 PIC50 TIE2-E2 assay
T2 construct: made in house
Text: TIE-2 Enzyme Assay (TIE2-E2
The TIE-2 enzyme assay uses the LANCE method (Wallac) and GST-TIE2, baculovirus-expressed recombinant constructs of the intracellular domains of human TIE2 (amino acids 762–1104, GenBank Accession # L06139) tagged by GST). The method measures the ability of the purified enzymes to catalyse the transfer of the γ-phosphate from ATP onto tyrosine residues in a biotinylated synthetic peptide, D1–15 (biotin-C6-LEARLVAYEGWVAGKKKamide). This peptide phosphorylation is detected using the following procedure: for enzyme preactivation, GST-TIE2 is incubated for 2 hours at room temperature with 80 μM ATP, 10 mM MgCl2, 0.1 mg/ml BSA, 0.01% Tween 20 and 1 mM DTT in 100 mM HEPES buffer (pH7.4). 5 nM preactivated GST-TIE2 is incubated for 2 hours at room temperature in 96 well plates with 1 uM D1–15 peptide, 80 uM ATP, 10 mM MgCl2, 0.1 mg/ml BSA, 0.01% Tween 20 and titrated test compound (diluted from a 10 mM stock in DMSO, final DMSO concentration is 2.4%) in 100 mM HEPES (pH7.4). The reaction is stopped by the addition of EDTA (final concentration 45 mM). Streptavidin linked-APC (allophycocyanin, PerkinElmer) and europium-labeled anti-phosphotyrosine antibody (PerkinElmer) are then added at the final concentration of 8 nM and 1 nM, respectively. The APC signal is measured using an Wallac Multilabel 1420 counter. (Wallac Berthold Japan). The percent inhibition of activity is calculated relative to blank control wells. The concentration of test compound that inhibits 50% of activity (IC50) is interpolated using nonlinear regression (Levernberg-Marquardt) and the equation, y=Vmax (1−x/(K+x))+Y2, where “K” is equal to the IC50. The IC50 values are converted to pIC50 values, i.e., −log IC50 in Molar concentration.

[2] = biological target: T3, catalytic domain of human VEGFR3 (Homo sapiens, UniProt P35916, H890Q); assay: VEGFR-3 Homogenous Time-Resolved Fluorescence Assay (VEGFR-3-HTRF); details: for IC50: read-out: VEGFR3 PIC50 VEGFR-3-HTRF assay
T3 construct: made in house; host or cells: Sf9 insect cells (baculovirus, pFastBac1)
Text: VEGFR—3-Homogenous Time-Resolved Fluorescence Assay (VEGFR-3-HTRF)
This assay assesses Vascular Endothelial Growth Factor 3 (VEGFR3) tyrosine kinase inhibitory activity in substrate phosphorylation assays. The assay examines the ability of small molecule organic compounds to inhibit the tyrosine phosphorylation of a peptide substrate.
The substrate phosphorylation assays use the VEGFR3 catalytic domain, which is expressed in Sf. 9 insect cells as an amino-terminal GST-tagged fusion protein. The catalytic domain of human VEGFR3 (AA residues #819–1298 based upon GenBank Accession #XM003852) is cloned by PCR from human Placenta Marathon Ready cDNA (Clontech). The PCR product is subcloned into pFastBac1 vector containing an N-terminal GST tag. The resulting pFB/GST/VEGFR3icd vector is used to generate a recombinant baculovirus for protein expression. The VEGFR3 catalytic domain translated sequence is:
Autophosphorylation allows enzymes to be fully activated prior to addition to peptide substrates. The assays are performed using enzyme that has been activated by autophosphorylation via preincubation in buffer with ATP and magnesium. Activated enzyme is then diluted and added to titrated compound and the substrate mix.
200 nM VEGFR3 enzyme is activated for 45 minutes at room temperature by incubating the enzyme in buffer containing 100 mM HEPES (pH7.2), 75 μM ATP, 0.3 mM DTT, 0.1 mg/mL BSA, and 10 mM MgCl2. After activation, VEGFR3 is diluted 100-fold into 2× dilution buffer: 200 mM HEPES (pH 7.5), 0.2 mg/mL BSA, 0.6 mM DTT. 20 μL of the diluted enzyme mix is added to 20 μL of 2× substrate mix (150 μM ATP, 20 mM MgCl2, 0.72 μM biotinylated peptide) in the assay plates. Final assay conditions are: 100 mM HEPES (pH 7.2), 75 μM ATP, 10 mM MgCl2, 0.1 mg/mL BSA, 0.3 mM DTT, 0.36 μM biotinylated peptide, and 1 nM VEGFR3 enzyme. Assay plates are incubated for 1.5 hours at room temperature before the addition of 30 μL 100 mM EDTA to the wells to stop the enzymatic reaction. 40 μL/well of HTRF mix are then added to the assay plates for the detection of phosphorylated substrate. Final assay concentrations are: 100 mM HEPES (pH7.2), 0.1 mg/mL BSA, 15 nM streptavidin-labeled allophycocyanin (PerkinElmer), and 1 nM europium-labeled anti-phosphotyrosine antibody (PerkinElmer). Assay plates are left unsealed and are counted in a Wallac Multilabel Counter 1420 (PerkinElmer).
The data for dose responses are plotted as % Control calculated with the data reduction formula 100*(U1–C2)/(C1–C2) versus concentration of compound where U is the unknown value, C1 is the average control value obtained for DMSO , and C2 is the average control value obtained for 0.1M EDTA. Data are fitted to the curve described by: y=((Vmax*x)/(K+x)) where Vmax is the upper asymptote and K is the IC50.

T3 sequence (P35916 with tags, fused parts or gaps isoform P35916-1 H890Q): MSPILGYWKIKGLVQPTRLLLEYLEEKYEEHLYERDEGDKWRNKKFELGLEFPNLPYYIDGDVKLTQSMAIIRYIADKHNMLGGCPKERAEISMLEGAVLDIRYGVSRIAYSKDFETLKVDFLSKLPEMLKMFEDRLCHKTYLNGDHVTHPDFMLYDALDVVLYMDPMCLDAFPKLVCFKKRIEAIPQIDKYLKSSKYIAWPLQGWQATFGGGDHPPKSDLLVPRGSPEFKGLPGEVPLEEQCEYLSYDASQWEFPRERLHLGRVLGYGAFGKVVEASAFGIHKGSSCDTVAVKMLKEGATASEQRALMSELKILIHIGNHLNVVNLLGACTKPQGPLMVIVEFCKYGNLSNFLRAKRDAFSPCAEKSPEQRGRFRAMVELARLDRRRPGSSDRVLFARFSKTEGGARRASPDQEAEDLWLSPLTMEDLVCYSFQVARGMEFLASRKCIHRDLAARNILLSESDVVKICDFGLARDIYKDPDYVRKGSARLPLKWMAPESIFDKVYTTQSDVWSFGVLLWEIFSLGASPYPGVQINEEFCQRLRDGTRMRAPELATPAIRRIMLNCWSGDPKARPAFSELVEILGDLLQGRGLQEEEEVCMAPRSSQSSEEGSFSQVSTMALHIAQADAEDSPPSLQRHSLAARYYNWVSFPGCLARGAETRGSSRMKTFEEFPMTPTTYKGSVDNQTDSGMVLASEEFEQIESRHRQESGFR
T2 sequence (Q02763 762-1104): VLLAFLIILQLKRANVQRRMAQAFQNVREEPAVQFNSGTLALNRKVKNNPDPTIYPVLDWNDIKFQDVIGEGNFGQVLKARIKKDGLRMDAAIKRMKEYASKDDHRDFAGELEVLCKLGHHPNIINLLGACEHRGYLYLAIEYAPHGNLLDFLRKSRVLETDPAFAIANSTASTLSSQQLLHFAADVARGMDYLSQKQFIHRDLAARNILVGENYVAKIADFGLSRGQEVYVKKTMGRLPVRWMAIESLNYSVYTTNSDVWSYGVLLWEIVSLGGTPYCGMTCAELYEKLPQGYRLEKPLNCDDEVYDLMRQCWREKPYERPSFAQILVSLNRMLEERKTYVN
T1 sequence (P35968 786-1356 limits assumed): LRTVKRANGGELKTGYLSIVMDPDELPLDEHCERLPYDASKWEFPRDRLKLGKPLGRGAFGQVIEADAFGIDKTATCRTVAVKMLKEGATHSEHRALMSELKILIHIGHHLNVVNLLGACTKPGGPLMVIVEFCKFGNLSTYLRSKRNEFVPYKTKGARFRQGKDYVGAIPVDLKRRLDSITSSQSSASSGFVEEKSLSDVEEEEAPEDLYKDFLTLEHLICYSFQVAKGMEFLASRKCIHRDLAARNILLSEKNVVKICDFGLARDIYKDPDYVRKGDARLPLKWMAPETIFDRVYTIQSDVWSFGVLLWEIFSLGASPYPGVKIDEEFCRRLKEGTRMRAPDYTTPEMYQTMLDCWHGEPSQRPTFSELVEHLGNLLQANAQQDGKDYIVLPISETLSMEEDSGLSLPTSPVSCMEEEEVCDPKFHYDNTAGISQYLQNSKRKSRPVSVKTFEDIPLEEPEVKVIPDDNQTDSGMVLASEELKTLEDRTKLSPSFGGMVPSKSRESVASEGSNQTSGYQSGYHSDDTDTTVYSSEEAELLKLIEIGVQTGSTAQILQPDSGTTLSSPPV

| IC50 (GST-VEGFR2) [µM] | IC50 [1] [µM] | IC50 [2] [µM] | Compound | VEGFR2 PIC50 VEGFR-E2 assay (GST-VEGFR2) | TIE2 PIC50 TIE2-E2 assay [1] | VEGFR3 PIC50 VEGFR-3-HTRF assay [2] |
| --- | --- | --- | --- | --- | --- | --- |
| 1 to 10 | > 10 | 1 to 10 | Cn1nc(-c2ccc(NS(=O)(=O)c3cccc(Cl)c3Cl)cc2)c2cnc(NCCCO)nc21 [Example 112, 2,3-Dichloro-N-{4-[1-methyl-6-(3-hydroxy-propylamino)-1H-pyrazolo[3,4-d]pyrimidin-3-yl]-phenyl}-benzenesulfonamide] |  |  |  |
| > 10 | 0.1 to 1 |  | Cn1nc(-c2ccc(NC(=O)Nc3ccc4ccccc4c3)c(F)c2)c2cnc(NCCN3CCOCC3)nc21 [Example 55] |  |  |  |
|  |  |  | 2,5-Dichloro-{4-{1-methyl-6-[3-(4-methyl-piperazin-1yl) -propylamino]-1H-pyrazolo[3,4-d]pyrimidin-3-yl}-phenyl}-thiophene-3-sulfonamide [Example 66] | −− (−− = PIC50 less than 5.00) | +++ (+++ = PIC50 = 7.00 to less than 7.40) | −− (−− = PIC50 less than 5.00) |
| 1 to 10 | ≤ 0.0398 | 1 to 10 | Cn1nc(-c2ccc(NC(=O)Nc3cc(C(F)(F)F)ccc3F)c(F)c2)c2cnc(NCCN3CCOCC3)nc21 [Example 49] |  |  |  |
| 1 to 10 | ≤ 0.0398 | 1 to 10 | Cn1cccc1CCNc1ncc2c(-c3ccc(NC(=O)Nc4cc(C(F)(F)F)ccc4F)cc3)nn(C)c2n1 [Example 101, 1-(2-Fluoro-5-trifluoromethyl-phenyl)-3-{4-[1-methyl-6-(2-[1-methyl-1H-pyrrol-2-yl]-ethylamino)-1H-pyrazolo[3,4-d]pyrimidin-3-yl]-phenyl} urea] |  |  |  |
|  |  |  | 1-(Chloro-trifluoromethyl-phenyl)-3-{4-[methyl-(2-morpholin-4-yl -ethylamino)-1H-pyrazolo[3,4-d]pyrimidin-3-yl]-phenyl}-urea [Example 37] | −− (−− = PIC50 less than 5.00) | +++ (+++ = PIC50 = 7.00 to less than 7.40) | + (+ = PIC50 = 5.00 to less than 6.00) |
|  |  |  | 1-(2-fluoro-5-trifluoromethyl-phenyl)-3-(4-{methyl-6-(2-oxopyrrolidin-2-yl)-1H-pyrazolo[3,4-d]pyrimidin-3-yl}-phenyl)-urea [Example 61] | ++ (++ = PIC50 = 6.00 to less than 7.00) | +++ (+++ = PIC50 = 7.00 to less than 7.40) | + (+ = PIC50 = 5.00 to less than 6.00) |
| 1 to 10 | > 10 | 0.1 to 1 | Cn1nc(-c2ccc(NS(=O)(=O)c3cccc(Cl)c3Cl)cc2)c2cnc(NCCN3CCNC3=O)nc21 [Example 109, 2,3-Dichloro-N-(4-{1-methyl-6-[2-(2-oxo-imidazolidin-1-yl)-ethylamino]-1H-pyrazolo[3,4-d]pyrimidin-3-yl]-phenyl}-benzenesulfonamide] |  |  |  |
| > 10 | 0.1 to 1 |  | Cn1nc(-c2ccc(NC(=O)Nc3cc(C(F)(F)F)ccc3F)cc2)c2cnc(NC(CO)CO)nc21 [Example 83] |  |  |  |
| 1 to 10 | 0.1 to 1 |  | CC(=O)Nc1ncc2c(-c3ccc(NC(=O)Nc4cc(C(F)(F)F)ccc4F)cc3)nn(C)c2n1 [Example 70] |  |  |  |
| > 10 | 0.1 to 1 |  | Cc1cc(-c2nn(C)c3nc(NCCN4CCOCC4)ncc23)ccc1NC(=O)Nc1ccc2ccccc2c1 [Example 46, 1-{2-Methyl-4-[1-methyl-6-(2-morpholin-4-yl-ethylamino)-1H -pyrazolo[3,4-d]pyrimidin-3-yl]-phenyl}-3-naphthalen-2-yl-urea] |  |  |  |
| 1 to 10 | 1 to 10 | 1 to 10 | Cn1nc(-c2ccc(NS(=O)(=O)c3cccc(Cl)c3Cl)cc2)c2cnc(NCCCN3CCCC3=O)nc21 [Example 67] |  |  |  |
| 1 to 10 | 0.1 to 1 | 1 to 10 | Cn1nc(-c2ccc(NC(=O)Nc3ccc4ccccc4c3)cc2)c2cnc(NCCN3CCOCC3)nc21 [Example 39, 1-{4-[1-Methyl-6-(2-morpholin-4-yl-ethylamino)-1H-pyrazolo[3,4-d]pyrimidin-3-y]-phenyl}-3-naphthalen-2-yl-urea] |  |  |  |
| 1 to 10 | 0.0398 to 0.1 | 1 to 10 | Cn1nc(-c2ccc(NC(=O)Nc3cc(C(F)(F)F)ccc3F)cc2)c2cnc(NCCN3CCOCC3)nc21 [Example 31, 1-(2-Fluoro-5-trifluoromethyl-phenyl)-3-{4-[1-methyl-6-(2-morpholin-4-yl-ethylamino)-1H-pyrazolo[3,4-d]pyrimidin-3-yl]-phenyl}urea] |  |  |  |
| 1 to 10 | 1 to 10 | 1 to 10 | Cn1nc(-c2ccc(NS(=O)(=O)c3cccc(Cl)c3Cl)cc2)c2cnc(NCCCCCO)nc21 [Example 114, 2,3-Dichloro-N-{4-[1-methyl-6-(5-hydroxy-pentylamino)-1H-pyrazolo[3,4-d]pyrimidin-3-yl]-phenyl}-benzenesulfonamide] |  |  |  |
|  |  |  | CN(CCN1CCOCC1)c1ncnc2[nH]nc(-c3ccc(NC(=O)Nc4cc(C(F)(F)F)ccc4F)c(C(F)(F)F)c3)c12 [Example 56, 1-(2-Fluoro-5-trifluoromethyl-phenyl)-3-{[methyl-(2-morpholin-4-yl-ethylamino)-1H-pyrazolo[3,4-d]pyrimidin-3-yl]-(2-trifluoromethyl-phenyl)}-urea] | + (+ = PIC50 = 5.00 to less than 6.00) | + (+ = PIC50 = 5.00 to less than 6.00) |  |
|  |  |  | Cn1nc(-c2ccc(NC(=O)Nc3cc(C(F)(F)F)cc(C(F)(F)F)c3)c(F)c2)c2cnc(NCCN3CCOCC3)nc21 [Example 53, 1-(3,5-Bis-trifluoromethyl-phenyl)-3-{2-fluoro-[methyl-(2-morpholin-4-yl-ethylamino)-1H-pyrazolo[3,4-d]pyrimidin-3-yl]-phenyl}-urea] | + (+ = PIC50 = 5.00 to less than 6.00) | +++ (+++ = PIC50 = 7.00 to less than 7.40) |  |
|  |  |  | Cn1nc(-c2ccc(NC(=O)Nc3cc(C(F)(F)F)cc(C(F)(F)F)c3)cc2)c2cnc(NCCN3CCOCC3)nc21 [Example 41, 1-(Bis-trifluoromethyl-phenyl)-3-{4-[1-methyl-6-(2-morpholin-4-yl-ethylamino)-1H-pyrazolo[3,4-d]pyrimidin-3-yl]-phenyl}-urea] | −− (−− = PIC50 less than 5.00) | ++ (++ = PIC50 = 6.00 to less than 7.00) |  |
